Laboratory results reported in US6001809A, “Inhibitors of leukocyte adhesion” (Elan Pharmaceuticals, Inc., priority 1995, dated 1999).
Bridge positions count the residues as written; N and C are the ends. Square brackets hold non-standard residues; d marks the D form. Ends that are not written are not given here. Peptide text beside a SMILES is read from it. I, II: the chains in the order shown.

The compounds below were run against T1, VLA-4 integrin (Homo sapiens, UniProt P05556+P13612) (assay: Adhesion of Jurkat cells to peptide-BSA conjugates). Conditions: peptide conjugated to carrier protein, coated on plastic at 3 μg/mL; FIG. 1.
T1 construct: endogenous in cells; host or cells: Jurkat cells
T1 sequence (P13612 34-1032): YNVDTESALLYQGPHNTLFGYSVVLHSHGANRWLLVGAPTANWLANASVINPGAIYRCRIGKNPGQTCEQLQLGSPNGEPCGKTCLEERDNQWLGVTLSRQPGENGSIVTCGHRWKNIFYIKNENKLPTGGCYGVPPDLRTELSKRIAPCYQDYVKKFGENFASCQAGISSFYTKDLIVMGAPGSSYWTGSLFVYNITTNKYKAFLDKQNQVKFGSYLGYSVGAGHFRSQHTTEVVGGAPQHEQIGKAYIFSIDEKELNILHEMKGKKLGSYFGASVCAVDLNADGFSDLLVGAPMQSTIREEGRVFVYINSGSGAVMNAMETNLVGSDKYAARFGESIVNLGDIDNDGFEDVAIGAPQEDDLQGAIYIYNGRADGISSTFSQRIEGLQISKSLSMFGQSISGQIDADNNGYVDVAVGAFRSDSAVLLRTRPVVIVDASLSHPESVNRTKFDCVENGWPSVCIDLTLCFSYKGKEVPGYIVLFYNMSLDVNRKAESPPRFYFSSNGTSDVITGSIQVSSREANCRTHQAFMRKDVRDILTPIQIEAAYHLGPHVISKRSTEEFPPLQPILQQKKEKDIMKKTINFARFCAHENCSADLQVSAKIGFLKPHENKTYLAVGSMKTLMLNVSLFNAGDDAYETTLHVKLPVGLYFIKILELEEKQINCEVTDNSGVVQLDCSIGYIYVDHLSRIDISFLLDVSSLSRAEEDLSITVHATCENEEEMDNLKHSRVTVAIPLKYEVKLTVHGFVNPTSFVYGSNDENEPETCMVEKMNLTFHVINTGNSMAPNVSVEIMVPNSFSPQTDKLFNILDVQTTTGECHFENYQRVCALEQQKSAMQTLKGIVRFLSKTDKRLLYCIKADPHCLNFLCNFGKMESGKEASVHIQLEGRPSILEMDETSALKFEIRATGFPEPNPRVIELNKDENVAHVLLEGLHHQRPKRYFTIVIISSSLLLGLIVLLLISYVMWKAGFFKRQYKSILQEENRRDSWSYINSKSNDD
T1 sequence (P05556 21-798): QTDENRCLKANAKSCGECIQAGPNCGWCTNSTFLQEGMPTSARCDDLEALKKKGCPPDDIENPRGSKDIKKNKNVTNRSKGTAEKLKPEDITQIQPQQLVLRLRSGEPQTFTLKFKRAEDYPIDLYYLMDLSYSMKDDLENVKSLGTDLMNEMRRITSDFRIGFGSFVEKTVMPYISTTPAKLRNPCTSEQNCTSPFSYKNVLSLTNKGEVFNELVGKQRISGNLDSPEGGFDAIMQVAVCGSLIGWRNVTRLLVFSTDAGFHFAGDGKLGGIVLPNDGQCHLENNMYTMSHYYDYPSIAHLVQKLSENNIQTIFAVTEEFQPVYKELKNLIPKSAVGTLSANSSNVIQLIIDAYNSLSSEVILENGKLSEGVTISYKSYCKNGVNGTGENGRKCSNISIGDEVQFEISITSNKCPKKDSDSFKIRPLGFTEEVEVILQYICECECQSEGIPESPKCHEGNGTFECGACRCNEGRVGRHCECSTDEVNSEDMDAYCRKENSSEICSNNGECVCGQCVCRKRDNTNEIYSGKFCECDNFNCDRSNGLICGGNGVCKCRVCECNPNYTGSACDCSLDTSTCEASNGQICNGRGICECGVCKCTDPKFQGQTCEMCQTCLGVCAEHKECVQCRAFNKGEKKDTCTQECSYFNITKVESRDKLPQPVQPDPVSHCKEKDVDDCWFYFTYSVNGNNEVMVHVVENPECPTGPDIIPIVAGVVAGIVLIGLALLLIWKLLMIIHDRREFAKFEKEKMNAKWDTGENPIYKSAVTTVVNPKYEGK
Assay type: cell-based
Experimental: The peptide used in this example was synthesized based on the sequence of the anti-α4 integrin antibody 21/6 (CGGEGYYGNYGVYA, SEQ ID No. 1). In this example the peptide was conjugated to a large carrier protein via the linker region that was synthesized as part of the peptide itself (in italics). The conjugated peptide was then coated onto plastic, and the ability of the conjugate to support cell adhesion was tested. This method is based on a report by Wayner and Kovach^40.
As a positive control, the fibronectin peptide described by Wayner was synthesized, conjugated to carrier protein, and tested for cell adhesion in parallel with SEQ ID NO. 1 (CGGEILDVPST, SEQ ID No. 2). Both peptide conjugates were exposed to the plastic at a concentration of 3 μg/mL. […] Adhesion was not affected by an antibody against β2 integrin (IOT18), a distinct cell adhesion molecule that is also expressed on the surface of Jurkat cells. Thus, like peptide SEQ ID NO. 2, peptide SEQ ID NO. 1 interacts with Jurkat in an α4 integrin-specific fashion.
In the case of “CGGEGYYGNYGVYA [SEQ ID No. 1, peptide from anti-α4 integrin antibody 21/6 with CGG linker, conjugated to carrier protein]”, the “adhesion of Jurkat cells to immobilized peptide conjugate” value is reported as “bound equally well”.
For “CGGEILDVPST [SEQ ID No. 2, fibronectin peptide described by Wayner, positive control, conjugated to carrier protein, reference compound]”, the “adhesion of Jurkat cells to immobilized peptide conjugate” value was “bound equally well”.

Each compound was assayed against T2, VLA-4 integrin interaction with VCAM-1 (Homo sapiens, UniProt P05556+P13612) (assay: Jurkat interaction with soluble VCAM-1 (sVCAM-1-IgG), FACS assay). Conditions: not given.
T2 construct: endogenous in cells; host or cells: Jurkat cells (VLA-4)
T2 sequence (P13612 34-1032): as the sequence (P13612 34-1032) above
T2 sequence (P05556 21-798): as the sequence (P05556 21-798) above
Assay type: cell-based
From the text: VCAM-1 was expressed as a soluble fusion protein. The construct expressed the seven extracellular domains of VCAM-1 on the N-terminus, and the human IgG1 heavy chain constant region on the C-terminus. Interaction of the soluble construct with Jurkat cells was monitored by standard FACS analysis, using a fluorescently labeled antibody directed against the construct's human IgG tail as a marker.
The activity of VLA-4 can be regulated. 15/7 is a monoclonal antibody that recognizes an activated conformation of VLA-4 and locks the molecule in the active state, thereby enhancing VLA-4-mediated cell adhesion.
Peptides of different length, and with various amino acid substitutions were synthesized based on the sequence of the CDR3 region of the antibody 21/6 (EGYYGNYGVYA) (SEQ ID No. 4). The peptides were then tested for their ability to inhibit Jurkat interaction with sVCAM-1-IgG in the FACS assay described in Example 6. IC50 values were determined for each peptide using this assay.
`NC(=O)C[C@@H]1NC(=O)CNC(=O)[C@H](Cc2ccccc2)NC(=O)CNC(=O)[C@@H](N)CSSC[C@@H](C(=O)O)NC(=O)[C@H](Cc2ccc(O)cc2)NC(=O)[C@H](CO)NC(=O)[C@H](Cc2c[nH]cn2)NC(=O)[C@H](CCC(=O)O)NC1=O` [SEQ ID No. 31, CGFGNEHSYC] (H-CGFGNEHSYC-OH; disulfide 1-10) was tested, and the IC50 was ≤ 50 µM.
In the case of `NC(=O)C[C@@H]1NC(=O)CNC(=O)[C@H](Cc2ccccc2)NC(=O)[C@@H](N)CSSC[C@@H](C(=O)O)NC(=O)[C@H](CO)NC(=O)[C@H](Cc2c[nH]cn2)NC(=O)[C@H](CCC(=O)O)NC1=O` [SEQ ID No. 32, CFGNEHSC] (H-CFGNEHSC-OH; disulfide 1-8), the IC50 is reported as ≤ 50 µM.
`NC(=O)CC[C@@H]1NC(=O)CNC(=O)[C@H](Cc2ccc(O)cc2)NC(=O)[C@H](Cc2ccc(O)cc2)NC(=O)CSC[C@@H](C(=O)O)NC1=O` [SEQ ID No. 52, [Ac]YYGQC] ({CH2CO}-YYGQC-OH; thioether N-5) was tested, and the IC50 was ≤ 50 µM.
With `C[C@@H]1NC(=O)CNC(=O)[C@H](Cc2ccc(O)cc2)NC(=O)[C@H](Cc2ccc(O)cc2)NC(=O)CSC[C@@H](C(=O)O)NC1=O` [SEQ ID No. 54, [Ac]YYGAC] ({CH2CO}-YYGAC-OH; thioether N-5) the IC50 was ≤ 50 µM.
For `NC(=O)C[C@@H]1NC(=O)[C@H](CCC(=O)O)NC(=O)[C@H](Cc2ccc(O)cc2)NC(=O)[C@H](Cc2ccc(O)cc2)NC(=O)CSC[C@@H](C(=O)O)NC1=O` [SEQ ID No. 60, [Ac]YYENC] ({CH2CO}-YYENC-OH; thioether N-5), the IC50 was ≤ 50 µM.
With `NC(=O)C[C@@H]1NC(=O)[C@H](Cc2ccc(O)cc2)NC(=O)CNC(=O)[C@H](Cc2ccc(O)cc2)NC(=O)[C@H](Cc2ccc(O)cc2)NC(=O)CSC[C@@H](C(=O)O)NC1=O` [SEQ ID No. 62, [Ac]YYGYNC] ({CH2CO}-YYGYNC-OH; thioether N-6) the IC50 was ≤ 50 µM.
In the case of `C[C@H](N)C(=O)N[C@@H](Cc1ccc(O)cc1)C(=O)N[C@@H](Cc1ccccc1)C(=O)NCC(=O)N1CCC[C@H]1C(=O)N[C@@H](CSSC[C@H](NC(=O)[C@@H]1CCCN1C(=O)CNC(=O)[C@H](Cc1ccccc1)NC(=O)[C@H](Cc1ccc(O)cc1)NC(=O)[C@H](C)N)C(=O)O)C(=O)O` [SEQ ID No. 71, AYFGPC AYFGPC] (I: H-AYFGPC-OH / II: H-AYFGPC-OH; disulfide I:6-II:6), the IC50 is reported as ≤ 50 µM.
For `CC(C)C[C@H]1NC(=O)CSC[C@@H](C(=O)O)NC(=O)[C@H](CC(N)=O)NC(=O)CNC(=O)[C@H](Cc2ccccc2)NC1=O` [SEQ ID No. 94, [Ac]lFGNC] ({CH2CO}-[dL]FGNC-OH; thioether N-5), the IC50 was ≤ 50 µM.
With `CC(C)[C@H]1NC(=O)CSC[C@@H](C(=O)O)NC(=O)[C@H](CC(N)=O)NC(=O)CNC(=O)[C@H](Cc2ccccc2)NC1=O` [SEQ ID No. 96, [Ac]vFGNC] ({CH2CO}-[dV]FGNC-OH; thioether N-5) the IC50 was ≤ 50 µM.
For `C[C@H](N)C(=O)N[C@@H](Cc1ccc(O)cc1)C(=O)N[C@@H](Cc1ccc(O)cc1)C(=O)N[C@@H](CCC(=O)O)C(=O)N[C@@H](CC(N)=O)C(=O)N[C@@H](CSSC[C@H](NC(=O)[C@H](CC(N)=O)NC(=O)[C@H](CCC(=O)O)NC(=O)[C@H](Cc1ccc(O)cc1)NC(=O)[C@H](Cc1ccc(O)cc1)NC(=O)[C@H](C)N)C(=O)O)C(=O)O` [SEQ ID No. 123, AYYENC AYYENC] (I: H-AYYENC-OH / II: H-AYYENC-OH; disulfide I:6-II:6), the IC50 was ≤ 50 µM.
With `NC(=O)C[C@H](NC(=O)[C@H](CCC(=O)O)NC(=O)[C@H](Cc1ccc(O)cc1)NC(=O)[C@H](Cc1ccc(O)cc1)NC(=O)[C@@H](N)CO)C(=O)N[C@@H](CSSC[C@H](NC(=O)[C@H](CC(N)=O)NC(=O)[C@H](CCC(=O)O)NC(=O)[C@H](Cc1ccc(O)cc1)NC(=O)[C@H](Cc1ccc(O)cc1)NC(=O)[C@@H](N)CO)C(=O)O)C(=O)O` [SEQ ID No. 125, SYYENC SYYENC] (I: H-SYYENC-OH / II: H-SYYENC-OH; disulfide I:6-II:6) the IC50 was ≤ 50 µM.
For `C[C@H](N)C(=O)N[C@H](Cc1ccc(O)cc1)C(=O)N[C@@H](Cc1ccc(O)cc1)C(=O)N[C@@H](CCC(=O)O)C(=O)N[C@@H](C)C(=O)N[C@@H](CS)C(=O)O` [SEQ ID No. 133, AyYEAC] (H-A[dY]YEAC-OH), the IC50 was ≤ 50 µM.
`C[C@H](N)C(=O)N[C@H](Cc1ccc(O)cc1)C(=O)N[C@@H](Cc1ccc(O)cc1)C(=O)N[C@@H](CCC(=O)O)C(=O)N[C@@H](C)C(=O)N[C@@H](CSSC[C@H](NC(=O)[C@H](C)NC(=O)[C@H](CCC(=O)O)NC(=O)[C@H](Cc1ccc(O)cc1)NC(=O)[C@@H](Cc1ccc(O)cc1)NC(=O)[C@H](C)N)C(=O)O)C(=O)O` [SEQ ID No. 140, AyYEAC AyYEAC] (I: H-A[dY]YEAC-OH / II: H-A[dY]YEAC-OH; disulfide I:6-II:6) was tested, and the IC50 was ≤ 50 µM.
With `C[C@H](N)C(=O)N[C@@H](Cc1ccc(O)cc1)C(=O)N[C@@H](Cc1ccc(O)cc1)C(=O)NCC(=O)N[C@@H](Cc1ccc(O)cc1)C(=O)N[C@@H](CC(N)=O)C(=O)N[C@@H](CSSC[C@H](NC(=O)[C@H](CC(N)=O)NC(=O)[C@H](Cc1ccc(O)cc1)NC(=O)CNC(=O)[C@H](Cc1ccc(O)cc1)NC(=O)[C@H](Cc1ccc(O)cc1)NC(=O)[C@H](C)N)C(=O)O)C(=O)O` [SEQ ID No. 144, AYYGYNC AYYGYNC] (I: H-AYYGYNC-OH / II: H-AYYGYNC-OH; disulfide I:7-II:7) the IC50 was ≤ 50 µM.
`C[C@H](N)C(=O)N[C@H](Cc1ccc(O)cc1)C(=O)N[C@@H](Cc1ccc(O)cc1)C(=O)NCC(=O)N[C@@H](C)C(=O)N[C@@H](CSSC[C@H](NC(=O)[C@H](C)NC(=O)CNC(=O)[C@H](Cc1ccc(O)cc1)NC(=O)[C@@H](Cc1ccc(O)cc1)NC(=O)[C@H](C)N)C(=O)O)C(=O)O` [SEQ ID No. 150, AyYGAC AyYGAC] (I: H-A[dY]YGAC-OH / II: H-A[dY]YGAC-OH; disulfide I:6-II:6) was tested, and the IC50 was ≤ 50 µM.
For `C[C@H](N)C(=O)N[C@H](Cc1ccc(O)cc1)C(=O)N[C@@H](Cc1ccc(O)cc1)C(=O)N[C@@H](CCC(=O)O)C(=O)N[C@@H](CC(N)=O)C(=O)N[C@@H](CSSC[C@H](NC(=O)[C@H](CC(N)=O)NC(=O)[C@H](CCC(=O)O)NC(=O)[C@H](Cc1ccc(O)cc1)NC(=O)[C@@H](Cc1ccc(O)cc1)NC(=O)[C@H](C)N)C(=O)O)C(=O)O` [SEQ ID No. 154, AyYENC AyYENC] (I: H-A[dY]YENC-OH / II: H-A[dY]YENC-OH; disulfide I:6-II:6), the IC50 was ≤ 50 µM.
In the case of AYFGPC [SEQ ID No. 142, AYFGPC], the IC50 is reported as ≤ 50 µM.
In the case of “Ac-EGYYGAYGVYA [SEQ ID No. 9, [Ac]EGYYGAYGVYA]”, the IC50 is reported as ≤ 50 µM.
For “Ac-EGYYGNAGVAA [SEQ ID No. 15, [Ac]EGYYGNAGVAA]”, the IC50 was ≤ 50 µM.
In the case of “Ac-EGYYGNYGAAA [SEQ ID No. 41, [Ac]EGYYGNYGAAA]”, the IC50 is reported as ≤ 50 µM.
“Ac-EGYYGNYGAYA [SEQ ID No. 42, [Ac]EGYYGNYGAYA]” was tested, and the IC50 was ≤ 50 µM.
In the case of “Ac-EGYYGNYGGYA [SEQ ID No. 43, [Ac]EGYYGNYGGYA]”, the IC50 is reported as ≤ 50 µM.
With “Ac-EGYYGNYGVAA [SEQ ID No. 12, [Ac]EGYYGNYGVAA]” the IC50 was ≤ 50 µM.
With “Ac-EGYYGNYGVY [SEQ ID No. 22, [Ac]EGYYGNYGVY]” the IC50 was ≤ 50 µM.
“Ac-YYGNYGVYA [SEQ ID No. 45, [Ac]YYGNYGVYA]” was tested, and the IC50 was ≤ 50 µM.
EGYYGNYGVY [SEQ ID No. 17, EGYYGNYGVY] was tested, and the IC50 was ≤ 50 µM.
In the case of STLTMNPVSF [SEQ ID No. 40, STLTMNPVSF], the IC50 is reported as ≤ 50 µM.
SYYENC [SEQ ID No. 124, SYYENC] was tested, and the IC50 was ≤ 50 µM.

Same assay, conditions: per Example 6: inhibition of Jurkat interaction with sVCAM-1-IgG, FACS, Mn+2 and 15/7 present; read-out: IC50
With `CC[C@H](C)[C@@H]1NC(=O)[C@H](CCC(N)=O)NC(=O)[C@H]([C@@H](C)O)NC(=O)[C@H](CCCNC(=N)N)NC(=O)[C@@H](N)CSSC[C@@H](C(=O)O)NC(=O)[C@H](CO)NC(=O)[C@H](CC(=O)O)NC1=O` [SEQ ID No. 35, CRTQIDSC] (H-CRTQIDSC-OH; disulfide 1-8) the IC50 was ≤ 50 µM.
For “Ac-EGYYGNYGVYA [SEQ ID No. 4, [Ac]EGYYGNYGVYA]”, the IC50 was ≤ 50 µM.
